Entries after “also recorded” stand apart in the source; their conditions may differ.
Experiments:
[1] = target: T1, modified (47 kDa) 6-phosphofructo-1-kinase (PFK-M), sfPFK-M fragments (Homo sapiens, UniProt P08237); experiment: in vitro inhibition of purified recombinant modified (cancer-specific) PFK-M fragments
T1 sequence (P08237 1-443 limits assumed): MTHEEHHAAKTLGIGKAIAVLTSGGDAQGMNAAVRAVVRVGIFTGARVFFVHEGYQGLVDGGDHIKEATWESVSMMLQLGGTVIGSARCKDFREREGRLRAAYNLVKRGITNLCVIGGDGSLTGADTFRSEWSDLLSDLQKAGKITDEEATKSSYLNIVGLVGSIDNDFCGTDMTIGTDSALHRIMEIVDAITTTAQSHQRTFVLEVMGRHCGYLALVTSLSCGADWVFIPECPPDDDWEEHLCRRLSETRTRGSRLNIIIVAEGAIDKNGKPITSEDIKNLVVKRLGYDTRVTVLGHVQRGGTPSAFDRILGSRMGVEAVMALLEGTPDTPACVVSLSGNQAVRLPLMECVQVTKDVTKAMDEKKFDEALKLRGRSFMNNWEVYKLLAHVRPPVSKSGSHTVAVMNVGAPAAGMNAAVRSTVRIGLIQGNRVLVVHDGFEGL
Procedure: Initially, all compounds were tested in vitro for inhibition of the purified human native enzyme (85 kDa) and modified cancer-specific shorter fragments (47 kDa) of muscle type PFK-M, followed by measurements of the purified native enzyme (85 kDa) and shorter fragments (70 kDa) of liver type PFK-L isoform.
Selected compounds were tested for in vitro inhibition of isolated recombinant human native and modified PFK-M enzymes.
The yeast transformant encoding the native human PFK-M enzyme was designated as nPFKM strain while transformant encoding cancer specific shorter fragments was designated as sfPFKM strain. […] For the enzymatic measurements, all the substrates (F6P and ATP), auxiliary enzymes, NADH and inhibitors dissolved in DMSO were added first to the buffer with PEG. After thorough mixing of the buffer with all ingredients, the enzymatic reaction started by the insertion of the purified recombinant enzymes.

Caco-2 cells = experiment: cytotoxicity in Caco-2 cells (lactate dehydrogenase (LDH) kit); assay type: cell-based
Procedure: Lactate generation, growth yield and survival under normal and inhibitory conditions of three different tumorigenic cells lines were determined in more detailed measurements. […] Cytotoxicity was measured by the Lactate dehydrogenase (LDH) kit (Roche).

[2] = test system: human embryonic kidney (HEK 293) cells; experiment: lactate excretion by non-tumorigenic HEK 293 cells; assay type: cell-based
Procedure: The effect of Inhibitor No. 3 on lactate excretion was tested also on two non-tumorigenic cell lines. First, fast proliferating human embryonic kidney (HEK 293) cells were assessed for lactate formation in the presence of Inhibitor No. 3. RPMI 1640 GlutaMAX medium (Thermo Fisher) supplemented with 10% FBS was used as a growth medium. […] About 95 mg/L of lactate were detected after 72 hours of incubation by untreated cells (control) and by the cells growing in the presence of Inhibitor No. 3 (Figure 9a). Similar results were recorded also by non-tumorigenic MCF-10A cell line isolated form the epithelial cells of the mammary gland. The cells were cultivated in MEBM medium supplemented by additives that were obtained as a MEGM Kit from Lonza/Clonetics Corporation. Characteristically these cells grew slower than HEK 293 cells with correspondingly slower lactate excretion rate. After 96 hours of incubation, only about 27 mg/L of lactate was detected in the medium. Again, no influence of different concentrations of Inhibitor No. 3 on lactate generation could be observed (Figure 9b).

Jurkat cells [3] = experiment: Seahorse XF assay (ECAR and OCR) in Jurkat cells; assay type: cell-based, human; settings: 100 µM added 24 hours before the experiment; treated versus untreated cells
Procedure: The efficiency of Inhibitors No. 3 and No. 9 was also tested by the determinations of glycolytic capacities in Jurkat cells in the presence and absence of inhibitors. For this purpose, Seahorse XF assay (Agilent Technology) was performed that enables non-destructive measurements of extracellular acidification rate (ECAR) and oxygen consumption rate (OCR) of tested cells. The cells were incubated in […] GlutaMAX medium with 10% FBS and 24 hours before the experiment inhibitors were added (100 µM). Non-adherent Jurkat cells (1×10^6 per mL) were stuck to the bottom of the wells by poly-I-lysine. The experiment was conducted essentially as recommended by Seahorse XF protocol and after 20 minutes of incubation, 1 µM of oligomycin A (ATP synthase inhibitor) and 0,25 µM of Carbonyl cyanide-4-(trifluoromethoxy)phenylhydrazone (FCCP) (mitochondrial oxidative phosphorylation uncoupler) were added to the cells. […] Reduced lactate excretion by the cells treated with both inhibitors might be responsible for reduced ECARs. Although the addition of oligomycin A and FCCP increased the extracellular acidification rate by the cells treated with both inhibitors, similar increase of ECAR was also observed in the untreated cells. […] It implies that inhibited PFK1 enzymes might reduce glycolytic flux and prevent the need for pyruvate reduction into lactate by re-oxidizing redundant cytosolic NADH. Under such conditions pyruvate can enter mitochondria, replenishing tri-carboxylic acids (TCA) cycle and fuelling oxidative respiration.

Jurkat cells [4] = experiment: lactate excretion by Jurkat cells (enzymatic L-lactic acid kit); assay type: cell-based, human
Procedure: The cells were incubated in 1 mL volume (24 well plates) at 5% CO2 and 37°C. The inhibitors were added in 100 µM concentration. As a control, equivalent amount of DMSO as used for the addition of inhibitors was supplemented to the medium. The tests started with 1×10^5 cells per mL. Extracellular lactate excreted by the Jurkat cells was measured in the supernatant of the growth medium after the cells were removed by centrifugation at 1500 rpm for 5 minutes. Lactate concentration was determined enzymatically using L-Lactatic acid kit (K-LATE, Megazyme, Ireland).
Measurements of lactate excretion in the tumorigenic Jurkat cells and the cells treated with two selected inhibitors at different concentrations were repeated by more detailed measurements. The growth conditions were identical to those described in Experiment 2. No significant difference in lactate excretion could be observed by the treated and untreated cells during the initial stage of growth that lasted for approximately 12 hours. Later on lactate excretion by the Jurkat cells ceased in the presence of both inhibitors.

Jurkat cells [5] = experiment: NADH levels in Jurkat cells (NADH/NAD fluorometric assay kit); assay type: cell-based, human; settings: 24 hours after addition, different concentrations
Procedure: By inhibiting modified PFK-M enzyme in the cancer cells, glycolytic flux should be decreased and concomitantly NADH levels reduced. To verify that, the amounts of reduced pyridine nucleotide was measured by NADH/NAD fluorometric assay kit (Abcam). The Jurkat cells were seeded into the wells of 96 wells plate at 5×10^5 cells per mL. The untreated cells (control) and the cells with specified amounts of added Inhibitors No. 3 and No. 9 were incubated for 24 hours.

## O=C(CSc1nnc(-c2ccc3c(c2)OCO3)o1)Nc1ccon1 [Inhibitor No. 3, 2-[(5-benzo[1,3]dioxol-5-yl-1,3,4-oxadiazol-2-yl)sulfanyl]-N-isoxazol-3-yl-acetamide]
[1]
  IC50: ~15 µM
Caco-2 cells; sequential addition at 24-hour intervals, 92 hours, average over medium without and with inhibitor
  average percentages of dead cells, Caco-2, sequential re-insertion: 5,38±0,4%
Caco-2 cells; single addition, average over control and different concentrations of inhibitor
  average percent of dead cells, Caco-2: 3,99±0,08%
[2]; 72 hours of growth, different concentrations of inhibitor
  reduction of lactate generation, HEK 293: no significant reduction of lactate generation
[2]; after 72 hours of incubation, same for untreated control
  lactate detected, HEK 293: About 95 mg/L
Jurkat cells [3]
  ECAR and OCR values prior to the addition of oligomycin A and FCCP: untreated Jurkat cells revealed higher ECAR and OCR values
Jurkat cells [4]; inhibitor concentrations lower than 200 µM
  time at which lactate production was averted: about 24 hours
Jurkat cells [4]; preliminary test, 100 µM inhibitor, followed for 48 hours, versus DMSO control
  lactate excretion by the Jurkat cells: Significantly lowered lactate excretions; also recorded: effectively prevented excretion
Jurkat cells [5]
  NADH levels: steadily decreased in dose dependent manner

Reference: patent EP3833345B1, “SMALL MOLECULE-INHIBITORS OF 6-PHOSPHOFRUCTO-1-KINASE FOR REDUCING LACTATE GENERATION BY CANCER CELLS” (Kemijski Institut, priority 2018, dated 2020)
